Data published in PMC7180948, “New Insights into 4-Anilinoquinazolines as Inhibitors of Cardiac Troponin I–Interacting Kinase (TNNi3K)” (Molecules, 2020).

Key:
Experiment in all cases: biochemical
Parameters in all cases: KINOMEscan competition binding panel (Eurofins DiscoverX), single concentration, % inhibition
Conditions in all cases: read-out: 7 at 1 µM % inhibition
PIK3CA(E542K) = PIK3CA(E542K) (Homo sapiens, UniProt P42336, E542K)
Outline: (§1)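 Values come from single-concentration (1 µM) profiling in the Eurofins DiscoverX KINOMEscan competition-binding platform, which covers over 400 kinases.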

FGFR3 = FGFR3 (Homo sapiens, UniProt P22607)
Sequence of FGFR3 (P22607 whole entry): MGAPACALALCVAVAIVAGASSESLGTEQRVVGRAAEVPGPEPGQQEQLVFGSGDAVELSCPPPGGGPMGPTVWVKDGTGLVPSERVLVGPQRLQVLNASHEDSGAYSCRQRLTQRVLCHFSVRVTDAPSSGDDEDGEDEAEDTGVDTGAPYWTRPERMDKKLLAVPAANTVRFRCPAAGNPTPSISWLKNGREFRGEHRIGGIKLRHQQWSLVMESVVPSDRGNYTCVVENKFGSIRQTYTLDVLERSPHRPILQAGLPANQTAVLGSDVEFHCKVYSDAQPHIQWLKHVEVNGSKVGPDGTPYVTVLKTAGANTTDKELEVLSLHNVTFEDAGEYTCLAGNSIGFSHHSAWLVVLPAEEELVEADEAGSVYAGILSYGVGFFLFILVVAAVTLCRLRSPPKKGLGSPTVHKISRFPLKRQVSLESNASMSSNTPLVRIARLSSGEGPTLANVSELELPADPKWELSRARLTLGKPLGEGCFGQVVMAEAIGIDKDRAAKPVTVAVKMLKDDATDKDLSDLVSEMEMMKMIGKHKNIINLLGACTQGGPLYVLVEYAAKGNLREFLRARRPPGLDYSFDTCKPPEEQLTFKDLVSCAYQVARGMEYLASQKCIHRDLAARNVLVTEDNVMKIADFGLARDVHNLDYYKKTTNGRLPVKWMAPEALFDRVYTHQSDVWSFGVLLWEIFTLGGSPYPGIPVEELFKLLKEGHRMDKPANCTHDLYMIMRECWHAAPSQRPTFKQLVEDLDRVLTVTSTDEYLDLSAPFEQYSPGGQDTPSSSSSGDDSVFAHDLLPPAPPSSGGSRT
Outline: as §1

IRAK1 = IRAK1 (Homo sapiens, UniProt P51617)
Sequence of IRAK1 (P51617 whole entry): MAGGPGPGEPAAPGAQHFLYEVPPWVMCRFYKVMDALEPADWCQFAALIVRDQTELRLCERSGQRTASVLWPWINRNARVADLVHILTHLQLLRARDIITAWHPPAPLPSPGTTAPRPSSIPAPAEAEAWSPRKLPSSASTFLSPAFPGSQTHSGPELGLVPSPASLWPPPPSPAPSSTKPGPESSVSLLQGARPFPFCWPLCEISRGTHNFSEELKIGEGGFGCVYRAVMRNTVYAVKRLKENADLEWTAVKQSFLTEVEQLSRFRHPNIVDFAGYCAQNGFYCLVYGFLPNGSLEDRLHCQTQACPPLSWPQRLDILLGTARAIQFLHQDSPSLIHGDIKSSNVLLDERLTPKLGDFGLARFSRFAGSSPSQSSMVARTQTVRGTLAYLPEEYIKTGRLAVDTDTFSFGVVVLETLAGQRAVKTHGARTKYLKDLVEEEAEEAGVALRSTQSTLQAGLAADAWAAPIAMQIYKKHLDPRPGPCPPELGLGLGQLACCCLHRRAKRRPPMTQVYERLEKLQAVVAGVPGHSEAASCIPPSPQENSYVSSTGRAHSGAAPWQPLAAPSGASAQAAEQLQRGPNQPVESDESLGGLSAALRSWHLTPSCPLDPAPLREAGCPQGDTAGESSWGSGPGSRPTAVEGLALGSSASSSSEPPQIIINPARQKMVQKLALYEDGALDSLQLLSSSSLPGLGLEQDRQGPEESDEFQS
Outline: as §1

PKAC-beta = target: T1, PKAC-beta (Homo sapiens, UniProt P22694)
T1 construct: gene PRKACB
Outline: as §1

PCTK1 = target: T2, PCTK1 (Homo sapiens, UniProt Q00536)
T2 construct: gene CDK16
Outline: as §1

FAK = target: T3, FAK (Homo sapiens, UniProt Q05397)
T3 construct: gene PTK2
T3 sequence (Q05397 whole entry): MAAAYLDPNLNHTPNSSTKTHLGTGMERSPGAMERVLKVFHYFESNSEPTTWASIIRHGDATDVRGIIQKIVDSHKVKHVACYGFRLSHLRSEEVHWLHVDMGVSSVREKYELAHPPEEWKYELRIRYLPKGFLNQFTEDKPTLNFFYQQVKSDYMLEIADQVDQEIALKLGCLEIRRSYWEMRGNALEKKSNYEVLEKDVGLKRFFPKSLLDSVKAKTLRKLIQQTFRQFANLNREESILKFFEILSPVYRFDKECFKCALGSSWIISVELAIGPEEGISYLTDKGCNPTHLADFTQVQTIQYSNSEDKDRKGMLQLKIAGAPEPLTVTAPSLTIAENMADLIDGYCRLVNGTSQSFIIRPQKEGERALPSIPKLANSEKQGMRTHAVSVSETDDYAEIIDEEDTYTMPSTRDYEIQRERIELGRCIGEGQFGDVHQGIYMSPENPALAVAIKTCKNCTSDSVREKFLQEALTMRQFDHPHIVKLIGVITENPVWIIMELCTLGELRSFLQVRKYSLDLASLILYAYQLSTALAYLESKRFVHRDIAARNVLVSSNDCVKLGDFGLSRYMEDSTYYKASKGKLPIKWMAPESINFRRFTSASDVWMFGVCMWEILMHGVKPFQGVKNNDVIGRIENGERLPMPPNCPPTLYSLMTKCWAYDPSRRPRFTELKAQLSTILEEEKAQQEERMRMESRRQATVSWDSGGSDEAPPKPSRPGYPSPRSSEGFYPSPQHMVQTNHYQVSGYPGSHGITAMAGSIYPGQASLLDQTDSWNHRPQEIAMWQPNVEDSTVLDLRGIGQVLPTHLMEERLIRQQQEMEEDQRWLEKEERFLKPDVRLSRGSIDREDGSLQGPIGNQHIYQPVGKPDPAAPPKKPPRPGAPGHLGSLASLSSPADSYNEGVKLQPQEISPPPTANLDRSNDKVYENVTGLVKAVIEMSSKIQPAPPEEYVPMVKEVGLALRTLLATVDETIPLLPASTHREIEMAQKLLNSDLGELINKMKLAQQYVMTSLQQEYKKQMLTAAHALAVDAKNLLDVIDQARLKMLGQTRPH
Outline: as §1

AKT1 = AKT1 (Homo sapiens, UniProt P31749)
Outline: as §1

TAOK3 = TAOK3 (Homo sapiens, UniProt Q9H2K8)
Outline: as §1

[1] = target: T4, ABL1(F317I)-nonphosphorylated (Homo sapiens, UniProt P00519, F317I)
T4 construct: nonphosphorylated
Outline: as §1

p38-beta = target: T5, p38-beta (Homo sapiens, UniProt Q15759)
T5 construct: gene MAPK11
Outline: as §1

[2] = target: T6, RSK3(Kin.Dom.2-C-terminal) (Homo sapiens, UniProt Q15349)
T6 construct: gene RPS6KA2; Kin.Dom.2-C-terminal
Outline: as §1

DAPK2 = DAPK2 (Homo sapiens, UniProt Q9UIK4)
Sequence of DAPK2 (Q9UIK4 whole entry): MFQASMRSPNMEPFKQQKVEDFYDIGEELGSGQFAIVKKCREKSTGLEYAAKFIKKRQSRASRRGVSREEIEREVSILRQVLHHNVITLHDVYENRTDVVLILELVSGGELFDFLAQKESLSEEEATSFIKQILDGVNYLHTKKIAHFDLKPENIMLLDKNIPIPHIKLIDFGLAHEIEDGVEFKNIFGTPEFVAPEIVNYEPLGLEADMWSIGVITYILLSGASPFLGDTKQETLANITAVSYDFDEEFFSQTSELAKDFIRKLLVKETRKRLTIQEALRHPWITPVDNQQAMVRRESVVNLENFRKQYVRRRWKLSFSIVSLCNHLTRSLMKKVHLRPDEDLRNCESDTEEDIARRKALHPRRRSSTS
Outline: as §1

[3] = target: T7, RPS6KA4(Kin.Dom.1-N-terminal) (Homo sapiens, UniProt O75676)
T7 construct: Kin.Dom.1-N-terminal
Outline: as §1

MEK3 = target: T8, MEK3 (Homo sapiens, UniProt P46734)
T8 construct: gene MAP2K3
T8 sequence (P46734 whole entry): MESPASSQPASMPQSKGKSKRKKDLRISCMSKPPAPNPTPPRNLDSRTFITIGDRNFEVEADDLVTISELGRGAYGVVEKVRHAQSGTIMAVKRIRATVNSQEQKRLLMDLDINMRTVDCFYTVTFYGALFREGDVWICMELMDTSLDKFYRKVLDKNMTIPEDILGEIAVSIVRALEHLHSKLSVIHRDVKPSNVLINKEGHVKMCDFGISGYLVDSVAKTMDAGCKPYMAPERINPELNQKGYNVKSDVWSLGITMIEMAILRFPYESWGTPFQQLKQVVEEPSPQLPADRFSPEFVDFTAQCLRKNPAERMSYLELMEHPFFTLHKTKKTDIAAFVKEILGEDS
Outline: as §1

RIPK4 = RIPK4 (Homo sapiens, UniProt P57078)
Outline: as §1

PIK4CB = target: T9, PIK4CB (Homo sapiens, UniProt Q9UBF8)
T9 construct: gene PI4KB
Outline: as §1

RIPK5 = target: T10, RIPK5 (Homo sapiens, UniProt Q6XUX3)
T10 construct: gene DSTYK
T10 sequence (Q6XUX3 whole entry): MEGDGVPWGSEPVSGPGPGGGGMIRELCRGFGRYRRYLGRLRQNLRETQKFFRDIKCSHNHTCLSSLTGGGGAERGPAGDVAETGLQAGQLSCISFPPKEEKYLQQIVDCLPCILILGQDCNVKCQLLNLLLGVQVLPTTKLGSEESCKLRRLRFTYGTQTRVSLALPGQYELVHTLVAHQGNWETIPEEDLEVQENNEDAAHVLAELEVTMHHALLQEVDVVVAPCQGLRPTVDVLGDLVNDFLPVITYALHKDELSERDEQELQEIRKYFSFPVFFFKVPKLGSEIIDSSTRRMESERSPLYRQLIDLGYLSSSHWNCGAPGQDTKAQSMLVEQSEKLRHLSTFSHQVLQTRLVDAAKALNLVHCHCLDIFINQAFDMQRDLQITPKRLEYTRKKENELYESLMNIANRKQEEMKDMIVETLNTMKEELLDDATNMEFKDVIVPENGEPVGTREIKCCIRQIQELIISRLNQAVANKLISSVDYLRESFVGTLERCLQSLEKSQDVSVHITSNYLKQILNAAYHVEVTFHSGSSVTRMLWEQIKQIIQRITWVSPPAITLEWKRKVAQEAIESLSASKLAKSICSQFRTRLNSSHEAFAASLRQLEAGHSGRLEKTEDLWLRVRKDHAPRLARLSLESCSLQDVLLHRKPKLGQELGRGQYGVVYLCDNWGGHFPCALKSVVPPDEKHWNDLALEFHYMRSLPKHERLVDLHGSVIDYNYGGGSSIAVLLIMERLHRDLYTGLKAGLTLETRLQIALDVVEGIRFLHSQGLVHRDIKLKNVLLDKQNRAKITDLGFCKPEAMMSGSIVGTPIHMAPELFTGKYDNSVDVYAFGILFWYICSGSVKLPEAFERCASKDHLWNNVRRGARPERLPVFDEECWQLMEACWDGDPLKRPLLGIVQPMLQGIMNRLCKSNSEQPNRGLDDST
Outline: as §1

DCAMKL3 = target: T11, DCAMKL3 (Homo sapiens, UniProt Q9C098)
T11 construct: gene DCLK3
Outline: as §1

ADCK3 = target: T12, ADCK3 (Homo sapiens, UniProt Q8NI60)
T12 construct: gene COQ8A
Outline: as §1

S6K1 = target: T13, S6K1 (Homo sapiens, UniProt P23443)
T13 construct: gene RPS6KB1
T13 sequence (P23443 whole entry): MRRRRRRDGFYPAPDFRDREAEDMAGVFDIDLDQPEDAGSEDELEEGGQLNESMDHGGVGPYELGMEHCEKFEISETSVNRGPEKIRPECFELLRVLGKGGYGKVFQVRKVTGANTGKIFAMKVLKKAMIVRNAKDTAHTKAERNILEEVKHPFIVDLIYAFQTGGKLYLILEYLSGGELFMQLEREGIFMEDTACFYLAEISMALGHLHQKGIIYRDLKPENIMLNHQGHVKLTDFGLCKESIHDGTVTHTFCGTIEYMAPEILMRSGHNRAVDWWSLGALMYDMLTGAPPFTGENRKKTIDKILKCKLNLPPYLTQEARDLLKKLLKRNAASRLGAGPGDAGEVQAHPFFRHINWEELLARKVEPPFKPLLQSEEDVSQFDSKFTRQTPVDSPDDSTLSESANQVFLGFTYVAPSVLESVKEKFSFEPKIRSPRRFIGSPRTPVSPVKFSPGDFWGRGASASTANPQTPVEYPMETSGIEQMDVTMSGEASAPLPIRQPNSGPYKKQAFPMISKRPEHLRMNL
Outline: as §1

ASK1 = target: T14, ASK1 (Homo sapiens, UniProt Q99683)
T14 construct: gene MAP3K5
Outline: as §1

PIM2 = PIM2 (Homo sapiens, UniProt Q9P1W9)
Sequence of PIM2 (Q9P1W9 whole entry): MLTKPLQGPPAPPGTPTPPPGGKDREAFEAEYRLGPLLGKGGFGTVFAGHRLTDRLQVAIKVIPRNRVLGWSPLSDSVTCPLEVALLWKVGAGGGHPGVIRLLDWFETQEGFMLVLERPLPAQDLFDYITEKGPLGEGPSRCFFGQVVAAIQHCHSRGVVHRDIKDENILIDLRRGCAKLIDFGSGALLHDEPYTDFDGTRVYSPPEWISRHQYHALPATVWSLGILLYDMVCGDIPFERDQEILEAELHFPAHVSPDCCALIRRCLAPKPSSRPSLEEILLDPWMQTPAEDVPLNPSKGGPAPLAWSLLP
Outline: as §1

BLK = BLK (Homo sapiens, UniProt P51451)
Outline: as §1

MAP4K4 = MAP4K4 (Homo sapiens, UniProt O95819)
Outline: as §1

`CNS(=O)(=O)c1ccc(N(C)C)c(Nc2ncnc3cc(OC)c(OC)cc23)c1` [compound 7, 3-((6,7-dimethoxyquinazolin-4-yl)amino)-4-(dimethylamino)-N-methylbenzenesulfonamide] showed an inhibition at 1 µM (PIK3CA(E542K)) of 17%, an inhibition at 1 µM (FGFR3) of 0% and an inhibition at 1 µM (IRAK1) of 68%. The inhibition at 1 µM (PKAC-beta) was 0%, the inhibition at 1 µM (PCTK1) was 13% and the inhibition at 1 µM (FAK) was 8%. It also gave an inhibition at 1 µM (AKT1) of 0%, an inhibition at 1 µM (TAOK3) of 29% and an inhibition at 1 µM [1] of 1%. It also gave an inhibition at 1 µM (p38-beta) of 0%, an inhibition at 1 µM [2] of 0% and an inhibition at 1 µM (DAPK2) of 0%. For the same compound, the inhibition at 1 µM [3] was 4%, the inhibition at 1 µM (MEK3) was 4% and the inhibition at 1 µM (RIPK4) was 0%. It also gave an inhibition at 1 µM (PIK4CB) of 14%, an inhibition at 1 µM (RIPK5) of 49% and an inhibition at 1 µM (DCAMKL3) of 15%. For the same compound, the inhibition at 1 µM (ADCK3) was 50%, the inhibition at 1 µM (S6K1) was 23% and the inhibition at 1 µM (ASK1) was 0%. It also gave an inhibition at 1 µM (PIM2) of 0%, an inhibition at 1 µM (BLK) of 29% and an inhibition at 1 µM (MAP4K4) of 0%.
